Experimental data from patent US20250325552A1, “SUBSTITUTED THIADIAZOLYL DERIVATIVES AS DNA POLYMERASE THETA INHIBITORS” (IDEAYA Biosciences, Inc., priority 2020, published 2025).

Biological target: Polθ theta (1-899) (hPolQ) (Homo sapiens (Human), UniProt O75417)
Assay: Biological Assay 1: Polθ ATPase activity, NADH oxidation-coupled enzymatic assay (10 nM enzyme, 30 min)
Type: biochemical
Conditions: Polθ (1-899) 10 nM, 100 μM ATP, 300 nM dT50 ssDNA; Examples 1 to 268; read-out: ATPase NADH coupling:Standard Screening:hPolQ IC50
Procedure, shortened: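 Polθ (1-899) at 10 nM was preincubated with compound for 15 min at room temperature in 20 mM Tris pH 7.80, 80 mM KCl, 10 mM MgCl2. An equal volume of 100 μM ATP, 300 nM dT50 ssDNA and a PK/LDH–NADH coupling system was then added. A340 was read each minute for 30 min. IC50 came from rate slopes over 10-point series with a four-parameter fit.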

Polθ theta (1-899) (hPolQ), sequence (O75417 1-899): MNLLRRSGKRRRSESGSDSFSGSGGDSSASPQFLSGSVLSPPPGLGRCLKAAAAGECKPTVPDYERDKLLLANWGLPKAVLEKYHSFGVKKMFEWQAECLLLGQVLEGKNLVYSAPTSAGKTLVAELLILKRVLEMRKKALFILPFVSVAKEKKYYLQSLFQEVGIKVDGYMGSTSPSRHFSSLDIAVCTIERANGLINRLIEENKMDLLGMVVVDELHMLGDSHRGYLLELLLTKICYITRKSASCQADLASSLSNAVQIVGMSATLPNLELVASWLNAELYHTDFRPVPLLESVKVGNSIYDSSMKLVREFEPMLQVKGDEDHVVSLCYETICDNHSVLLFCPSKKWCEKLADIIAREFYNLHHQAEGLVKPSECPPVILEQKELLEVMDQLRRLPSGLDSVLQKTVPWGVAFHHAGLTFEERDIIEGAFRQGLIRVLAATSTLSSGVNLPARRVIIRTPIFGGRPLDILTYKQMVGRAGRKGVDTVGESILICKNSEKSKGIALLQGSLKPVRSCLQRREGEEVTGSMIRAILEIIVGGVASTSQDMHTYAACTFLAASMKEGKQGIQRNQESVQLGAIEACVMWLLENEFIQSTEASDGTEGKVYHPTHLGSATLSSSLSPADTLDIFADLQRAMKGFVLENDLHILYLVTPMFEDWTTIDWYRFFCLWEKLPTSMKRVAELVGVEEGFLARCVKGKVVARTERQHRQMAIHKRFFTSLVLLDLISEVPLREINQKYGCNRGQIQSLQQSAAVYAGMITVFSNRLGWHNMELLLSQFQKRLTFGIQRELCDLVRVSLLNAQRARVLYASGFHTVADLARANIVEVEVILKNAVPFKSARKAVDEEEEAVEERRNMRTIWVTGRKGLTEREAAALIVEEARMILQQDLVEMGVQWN

`COc1cccc(F)c1-c1cc(C)ncc1C(=O)Nc1nnc(OCc2ccc(C(C)(C)OC)cn2)s1` [Example 80, 4-(2-fluoro-6-methoxyphenyl)-N-(5-((5-(2-methoxypropan-2-yl)pyridin-2-yl)methoxy)-1,3,4-thiadiazol-2-yl)-6-methylnicotinamide] and `COc1cnc(Cl)cc1-c1cc(C)ncc1C(=O)Nc1nnc(OCc2ccc(C(C)(C)OC)cn2)s1` [Example 125, 2′-chloro-5′-methoxy-N-(5-((5-(2-methoxypropan-2-yl)pyridin-2-yl)methoxy)-1,3,4-thiadiazol-2-yl)-6-methyl-(4,4′-bipyridine)-3-carboxamide] cannot be ordered by IC50: at most 200 nM for the first, at most 200 nM for the second.

`COc1cnc(Cl)cc1-c1cc(C)ncc1C(=O)Nc1nnc(OCC2CC3(COC3)C2)s1` [Example 172, N-(5-((2-oxaspiro(3.3)heptan-6-yl)methoxy)-1,3,4-thiadiazol-2-yl)-2′-chloro-5′-methoxy-6-methyl-(4,4′-bipyridine)-3-carboxamide] and `COc1cnc(Cl)cc1-c1cc(C)ncc1C(=O)Nc1nnc(OCC2CCOC2)s1` (racemic) [Example 167, 2′-chloro-5′-methoxy-6-methyl-N-(5-((tetrahydrofuran-3-yl)methoxy)-1,3,4-thiadiazol-2-yl)-(4,4′-bipyridine)-3-carboxamide] cannot be ordered by IC50: at most 200 nM for the first, at most 200 nM for the second.

`Cc1cc(-c2c(F)cccc2OC(F)F)c(C(=O)Nc2nnc(OCc3cnc(CO)cn3)s2)cn1` [Example 70, 4-(2-(difluoromethoxy)-6-fluorophenyl)-N-(5-((5-(hydroxymethyl)pyrazin-2-yl)methoxy)-1,3,4-thiadiazol-2-yl)-6-methylnicotinamide] and `COc1ccc(Cl)cc1-c1cc(C)ncc1C(=O)Nc1nnc(OCc2cnc(CO)cn2)s1` [Example 133, 4-(5-chloro-2-methoxyphenyl)-N-(5-((5-(hydroxymethyl)pyrazin-2-yl)methoxy)-1,3,4-thiadiazol-2-yl)-6-methylpyridine-3-carboxamide] cannot be ordered by IC50: at most 200 nM for the first, at most 200 nM for the second.

`COc1cnc(C)c(F)c1-c1cc(C)ncc1C(=O)Nc1nnc(OCC23CCC(O)(CC2)C3)s1` [Example 217, 3′-fluoro-N-(5-((4-hydroxybicyclo(2.2.1)heptan-1-yl)methoxy)-1,3,4-thiadiazol-2-yl)-5′-methoxy-2′,6-dimethyl-(4,4′-bipyridine)-3-carboxamide] and `COc1cnc(Cl)c(F)c1-c1cc(C)ncc1C(=O)Nc1nnc(OCC23CC(O)(C2)C3)s1` [Example 185, 2′-chloro-3′-fluoro-N-(5-((3-hydroxybicyclo(1.1.1)pentan-1-yl)methoxy)-1,3,4-thiadiazol-2-yl)-5′-methoxy-6-methyl-(4,4′-bipyridine)-3-carboxamide] cannot be ordered by IC50: at most 200 nM for the first, at most 200 nM for the second.

First: COc1ccccc1-c1nc2cccnc2cc1C(=O)Nc1nnc(OCc2ccc(Cl)cn2)s1 [Example 9, N-(5-((5-chloropyridin-2-yl)methoxy)-1,3,4-thiadiazol-2-yl)-2-(2-methoxyphenyl)-1,5-naphthyridine-3-carboxamide]
Second: COc1ccc(F)cc1-c1cc(C)ncc1C(=O)Nc1nnc(OCc2ccc(Cl)cn2)s1 [Example 13, N-(5-((5-chloropyridin-2-yl)methoxy)-1,3,4-thiadiazol-2-yl)-4-(5-fluoro-2-methoxyphenyl)-6-methylnicotinamide]
The IC50 of the first is higher: 1000 to 10000 nM for the first, at most 200 nM for the second.

`COc1c(F)cccc1-c1cc(C)ncc1C(=O)Nc1nnc(OCc2ccc(Cl)cn2)s1` [Example 16, N-(5-((5-chloropyridin-2-yl)methoxy)-1,3,4-thiadiazol-2-yl)-4-(3-fluoro-2-methoxyphenyl)-6-methylnicotinamide] and `COc1ccc(COc2nnc(NC(=O)c3cnc(C)cc3-c3cc(Cl)ccc3OC)s2)nc1` [Example 52, 4-(5-chloro-2-methoxyphenyl)-N-(5-((5-methoxypyridin-2-yl)methoxy)-1,3,4-thiadiazol-2-yl)-6-methylpyridine-3-carboxamide] cannot be ordered by IC50: at most 200 nM for the first, at most 200 nM for the second.

`COc1cnc(Cl)cc1-c1cc(C)ncc1C(=O)Nc1nnc(OC[C@@H]2CO[C@@H](C)C2)s1` (single isomer, unassigned) [Example 254] and `COc1cnc(Cl)cc1-c1cc(C)ncc1C(=O)Nc1nnc(OC[C@@H]2COC[C@@H]2C)s1` (single isomer, unassigned) [Example 265] cannot be ordered by IC50: at most 200 nM for the first, at most 200 nM for the second.

`COc1cnc(Cl)cc1-c1cc(C)ncc1C(=O)Nc1nnc(OC[C@]2(C)CCOC2)s1` (single isomer, unassigned) [Example 160] and `COc1cnc(Cl)cc1-c1cc(C)ncc1C(=O)Nc1nnc(OC[C@]2(F)CCOC2)s1` (single isomer, unassigned) [Example 264] cannot be ordered by IC50: at most 200 nM for the first, at most 200 nM for the second.

`COc1cccc(F)c1-c1cc(C)ncc1C(=O)Nc1nnc(OCc2ccn(C)n2)s1` [Example 15, 4-(2-fluoro-6-methoxyphenyl)-6-methyl-N-(5-((1-methylpyrazol-3-yl)methoxy)-1,3,4-thiadiazol-2-yl)pyridine-3-carboxamide] and `COc1cccc(F)c1-c1cc(C)ncc1C(=O)Nc1nnc(OCc2ccc3c(n2)CCC[C@@H]3O)s1` [Example 116, 4-(2-fluoro-6-methoxyphenyl)-N-(5-(((S)-5-hydroxy-5,6,7,8-tetrahydroquinolin-2-yl)methoxy)-1,3,4-thiadiazol-2-yl)-6-methylnicotinamide] cannot be ordered by IC50: at most 200 nM for the first, at most 200 nM for the second.

First: COc1ccccc1-c1cnccc1C(=O)Nc1nnc(OCC2CCCCO2)s1 (centres unmarked) [compound 2, 3-(2-methoxyphenyl)-N-(5-((tetrahydro-2H-pyran-2-yl)methoxy)-1,3,4-thiadiazol-2-yl)isonicotinamide]
Second: COc1ccccc1-c1cnccc1C(=O)Nc1nnc(OCCC2(C#N)CC2)s1 [Example 192, N-(5-(2-(1-cyanocyclopropyl)ethoxy)-1,3,4-thiadiazol-2-yl)-3-(2-methoxyphenyl)pyridine-4-carboxamide]
The IC50 of the first is lower: 200 to 500 nM for the first, 1000 to 10000 nM for the second.

`Cc1cc(-c2cc(Cl)ncc2OC(F)F)c(C(=O)Nc2nnc(OC[C@H]3COCCO3)s2)cn1` [Example 234, (R)—N-(5-((1,4-dioxan-2-yl)methoxy)-1,3,4-thiadiazol-2-yl)-2′-chloro-5′-(difluoromethoxy)-6-methyl-(4,4′-bipyridine)-3-carboxamide] and `COc1cnc(Br)cc1-c1cc(C)ncc1C(=O)Nc1nnc(OC[C@H]2COCCO2)s1` [Example 236, (R)—N-(5-((1,4-dioxan-2-yl)methoxy)-1,3,4-thiadiazol-2-yl)-2′-bromo-5′-methoxy-6-methyl-(4,4′-bipyridine)-3-carboxamide] cannot be ordered by IC50: at most 200 nM for the first, at most 200 nM for the second.

`COc1cnc(Cl)cc1-c1cc(C)ncc1C(=O)Nc1nnc(OC[C@@H]2CO[C@H](CO)CO2)s1` (racemic) [Example 237, rel-2′-chloro-N-(5-(((2s,5r)-5-(hydroxymethyl)-1,4-dioxan-2-yl)methoxy)-1,3,4-thiadiazol-2-yl)-5′-methoxy-6-methyl-(4,4′-bipyridine)-3-carboxamide] and `COc1cnc(Cl)cc1-c1cc(C)ncc1C(=O)Nc1nnc(OC[C@@H]2COC(C)(C)CO2)s1` (single isomer, unassigned) [Example 222] cannot be ordered by IC50: at most 200 nM for the first, at most 200 nM for the second.

`COc1cnc(Cl)cc1-c1cc(C)ncc1C(=O)Nc1nnc(OCc2cnc(CO)cn2)s1` [Example 145, 2′-chloro-N-(5-((5-(hydroxymethyl)pyrazin-2-yl)methoxy)-1,3,4-thiadiazol-2-yl)-5′-methoxy-6-methyl-(4,4′-bipyridine)-3-carboxamide] and `COc1cnc(C)cc1-c1cc(C)ncc1C(=O)Nc1nnc(OCc2cnc(CO)cn2)s1` [Example 146, N-(5-((5-(hydroxymethyl)pyrazin-2-yl)methoxy)-1,3,4-thiadiazol-2-yl)-5′-methoxy-2′,6-dimethyl-[4,4′-bipyridine]-3-carboxamide] cannot be ordered by IC50: at most 200 nM for the first, at most 200 nM for the second.

`COc1cccc(F)c1-c1cc(C)ncc1C(=O)Nc1nnc(OCC23CCC(O)(CC2)CC3)s1` [Example 66, 4-(2-fluoro-6-methoxyphenyl)-N-(5-((4-hydroxybicyclo(2.2.2)octan-1-yl)methoxy)-1,3,4-thiadiazol-2-yl)-6-methylnicotinamide] and `COc1cccc(F)c1-c1cc(C)ncc1C(=O)Nc1nnc(OCC23CCC(F)(CC2)CC3)s1` [Example 65, 4-(2-fluoro-6-methoxyphenyl)-N-(5-((4-fluorobicyclo(2.2.2)octan-1-yl)methoxy)-1,3,4-thiadiazol-2-yl)-6-methylnicotinamide] cannot be ordered by IC50: at most 200 nM for the first, at most 200 nM for the second.

`COc1cccc(F)c1-c1cc(C)ncc1C(=O)Nc1nnc(OCC2CC3(CC(O)C3)C2)s1` (centres unmarked) [Example 141, 4-(2-fluoro-6-methoxyphenyl)-N-(5-((6-hydroxyspiro(3.3)heptan-2-yl)methoxy)-1,3,4-thiadiazol-2-yl)-6-methylpyridine-3-carboxamide] and `COc1cnc(Cl)cc1-c1cc(C)ncc1C(=O)Nc1nnc(OC[C@H]2CC[C@H](OC(F)F)CC2)s1` [Example 159, 2′-chloro-N-(5-(((1r,4r)-4-(difluoromethoxy)cyclohexyl)methoxy)-1,3,4-thiadiazol-2-yl)-5′-methoxy-6-methyl-(4,4′-bipyridine)-3-carboxamide] cannot be ordered by IC50: at most 200 nM for the first, at most 200 nM for the second.

First: COc1cnc(C)cc1-c1cc(C)ncc1C(=O)Nc1nnc(OCc2ccc(OC(F)F)cn2)s1 [Example 82, N-(5-((5-(difluoromethoxy)pyridin-2-yl)methoxy)-1,3,4-thiadiazol-2-yl)-5′-methoxy-2′,6-dimethyl-(4,4′-bipyridine)-3-carboxamide]
Second: Cc1cc(C2CCOCC2)c(C(=O)Nc2nnc(OCc3ccc(Cl)cn3)s2)cn1 [Example 18, N-(5-((5-chloropyridin-2-yl)methoxy)-1,3,4-thiadiazol-2-yl)-6-methyl-4-(tetrahydro-2H-pyran-4-yl)nicotinamide]
The IC50 of the first is lower: at most 200 nM for the first, 1000 to 10000 nM for the second. The first is the more potent here.
